Legend:
velvetleaf [1] = experiment: Test Example 5: herbicidal effect by foliage application, plastic box (Table 20, symbol M); format: in vivo, velvetleaf (Abutilon theophrasti); conditions: foliage application, evaluated three weeks after application
Summary of the method: (§1)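 Post-emergence foliar test in sterilized diluvial soil. Compound applied as water-diluted emulsion at a predetermined rate to 14-day-old plants; evaluation at three weeks.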

chickweed [2] = experiment: Test Example 5: herbicidal effect by foliage application, plastic box (Table 20, symbol P); format: in vivo, common chickweed (Stellaria media); conditions: foliage application, evaluated three weeks after application
Summary of the method: as §1

redroot pigweed [3] = experiment: Test Example 4: herbicidal effect by soil treatment (Table 19, symbol N); format: in vivo, redroot pigweed (Amaranthus retroflexus); conditions: amount of applied herbicide 320 g/ha
Summary of the method: (§2)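 Scoring uses the grading scale of an earlier test, three weeks post-application. Treatment consists of spraying a diluted emulsion formulation across the surface of sterilized diluvial soil in which seeds are buried near 1.5 cm deep; boxes are kept in a greenhouse between 25° C. and 30° C.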

blackgrass [4] = experiment: Test Example 5: herbicidal effect by foliage application, plastic box (Table 20, symbol J); format: in vivo, blackgrass (Alopecurus myosuroides); conditions: foliage application, evaluated three weeks after application
Summary of the method: as §1

chickweed [5] = experiment: Test Example 4: herbicidal effect by soil treatment (Table 19, symbol P); format: in vivo, common chickweed (Stellaria media); conditions: amount of applied herbicide 320 g/ha
Summary of the method: as §2

windgrass [6] = experiment: Test Example 5: herbicidal effect by foliage application, plastic box (Table 20, symbol L); format: in vivo, windgrass (Apera spica-venti); conditions: foliage application, evaluated three weeks after application
Summary of the method: as §1

blackgrass [7] = experiment: Test Example 4: herbicidal effect by soil treatment (Table 19, symbol J); format: in vivo, blackgrass (Alopecurus myosuroides); conditions: amount of applied herbicide 320 g/ha
Summary of the method: as §2

redroot pigweed [8] = experiment: Test Example 5: herbicidal effect by foliage application, plastic box (Table 20, symbol N); format: in vivo, redroot pigweed (Amaranthus retroflexus); conditions: foliage application, evaluated three weeks after application
Summary of the method: as §1

Italian ryegrass [9] = experiment: Test Example 5: herbicidal effect by foliage application, plastic box (Table 20, symbol K); format: in vivo, Italian ryegrass (Lolium multiflorum); conditions: foliage application, evaluated three weeks after application
Summary of the method: as §1

windgrass [10] = experiment: Test Example 4: herbicidal effect by soil treatment (Table 19, symbol L); format: in vivo, windgrass (Apera spica-venti); conditions: amount of applied herbicide 320 g/ha
Summary of the method: as §2

southern crabgrass [11] = experiment: Test Example 4: herbicidal effect by soil treatment (Table 19, symbol F); format: in vivo, southern crabgrass (Digitaria ciliaris); conditions: amount of applied herbicide 320 g/ha
Summary of the method: as §2

barnyard grass [12] = experiment: Test Example 4: herbicidal effect by soil treatment (Table 19, symbol H); format: in vivo, barnyard grass (Echinochloa crus-galli); conditions: amount of applied herbicide 320 g/ha
Summary of the method: as §2

green foxtail [13] = experiment: Test Example 4: herbicidal effect by soil treatment (Table 19, symbol G); format: in vivo, green foxtail (Setaria viridis); conditions: amount of applied herbicide 320 g/ha
Summary of the method: as §2

southern crabgrass [14] = experiment: Test Example 5: herbicidal effect by foliage application, plastic box (Table 20, symbol F); format: in vivo, southern crabgrass (Digitaria ciliaris); conditions: foliage application, evaluated three weeks after application
Summary of the method: as §1

false cleavers [15] = experiment: Test Example 4: herbicidal effect by soil treatment (Table 19, symbol Q); format: in vivo, false cleavers (Galium spurium); conditions: amount of applied herbicide 320 g/ha
Summary of the method: as §2

lambsquarters [16] = experiment: Test Example 5: herbicidal effect by foliage application, plastic box (Table 20, symbol O); format: in vivo, lambsquarters (Chenopodium album); conditions: foliage application, evaluated three weeks after application
Summary of the method: as §1

lambsquarters [17] = experiment: Test Example 4: herbicidal effect by soil treatment (Table 19, symbol O); format: in vivo, lambsquarters (Chenopodium album); conditions: amount of applied herbicide 320 g/ha
Summary of the method: as §2

green foxtail [18] = experiment: Test Example 5: herbicidal effect by foliage application, plastic box (Table 20, symbol G); format: in vivo, green foxtail (Setaria viridis); conditions: foliage application, evaluated three weeks after application
Summary of the method: as §1

persian speedwell [19] = experiment: Test Example 5: herbicidal effect by foliage application, plastic box (Table 20, symbol R); format: in vivo, Persian speedwell (Veronica persica); conditions: foliage application, evaluated three weeks after application
Summary of the method: as §1

velvetleaf [20] = experiment: Test Example 4: herbicidal effect by soil treatment (Table 19, symbol M); format: in vivo, velvetleaf (Abutilon theophrasti); conditions: amount of applied herbicide 320 g/ha
Summary of the method: as §2

wild oat [21] = experiment: Test Example 4: herbicidal effect by soil treatment (Table 19, symbol I); format: in vivo, wild oat (Avena fatua); conditions: amount of applied herbicide 320 g/ha
Summary of the method: as §2

wild oat [22] = experiment: Test Example 5: herbicidal effect by foliage application, plastic box (Table 20, symbol I); format: in vivo, wild oat (Avena fatua); conditions: foliage application, evaluated three weeks after application
Summary of the method: as §1

Italian ryegrass [23] = experiment: Test Example 4: herbicidal effect by soil treatment (Table 19, symbol K); format: in vivo, Italian ryegrass (Lolium multiflorum); conditions: amount of applied herbicide 320 g/ha
Summary of the method: as §2

false cleavers [24] = experiment: Test Example 5: herbicidal effect by foliage application, plastic box (Table 20, symbol Q); format: in vivo, false cleavers (Galium spurium); conditions: foliage application, 320 g/ha, evaluated three weeks after application
Summary of the method: as §1

barnyard grass [25] = experiment: Test Example 5: herbicidal effect by foliage application, plastic box (Table 20, symbol H); format: in vivo, barnyard grass (Echinochloa crus-galli); conditions: foliage application, evaluated three weeks after application
Summary of the method: as §1

Japanese bulrush = experiment: Test Example 1: herbicidal activity, application before weed generation under submerged conditions (Table 16, symbol B); format: in vivo, Japanese bulrush (Schoenoplectus juncoides); conditions: 320 g/ha applied herbicide
Summary of the method: (§3)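 Emulsion formulation, water-diluted to set dose, was put onto the flooded surface (4 cm depth, alluvial soil) the same day weeds were sown and 2.5-leaf rice transplanted. After 3 weeks at 25-30 °C under glass, each species was rated 0 (≤5% kill) to 5 (≥90% kill).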

Chinese sprangletop = experiment: Test Example 3: herbicidal effect by foliage application, Wagner pot (Table 18, symbol D); format: in vivo, chinese sprangletop (Leptochloa chinensis); conditions: amount of applied herbicide 320 g/ha
Summary of the method: (§4)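 Plants were sown in alluvial soil held under 0.1–0.5 cm standing water and grown 14 days in a greenhouse at 25–30 °C. An emulsifiable formulation, water-diluted to the set dose, was then sprayed onto the foliage, and effects were scored three weeks later using previously defined criteria.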

persian speedwell [26] = experiment: Test Example 4: herbicidal effect by soil treatment (Table 19, symbol R); format: in vivo, Persian speedwell (Veronica persica); conditions: amount of applied herbicide 320 g/ha
Summary of the method: as §2

oval-leafed pondweed = experiment: Test Example 1: herbicidal activity, application before weed generation under submerged conditions (Table 16, symbol C); format: in vivo, oval-leafed pondweed (Monochoria vaginalis); conditions: 320 g/ha applied herbicide
Summary of the method: as §3

rice flat sedge = experiment: Test Example 3: herbicidal effect by foliage application, Wagner pot (Table 18, symbol E); format: in vivo, rice flat sedge (Cyperus iria); conditions: amount of applied herbicide 320 g/ha
Summary of the method: as §4

barnyard grass [27] = experiment: Test Example 3: herbicidal effect by foliage application, Wagner pot (Table 18, symbol H); format: in vivo, barnyard grass (Echinochloa crus-galli); conditions: amount of applied herbicide 320 g/ha
Summary of the method: as §4

late watergrass = experiment: Test Example 1: herbicidal activity, application before weed generation under submerged conditions (Table 16, symbol A); format: in vivo, late watergrass (Echinochloa oryzicola); conditions: 320 g/ha applied herbicide
Summary of the method: as §3

SMILES: COc1cccc(OC)c1-c1sc2ccc(Cl)cc2c1-c1c(O)c(C)nn(C)c1=O [2-121]
- herbicidal effect on M: velvetleaf (velvetleaf [1]; 320 g/ha): 0 (Herbicidal rate of 5% or less (almost no effect))
- herbicidal effect on P: chickweed (chickweed [2]; 320 g/ha): 3 (Herbicidal rate of 40% or more and less than 70%)
- N: redroot pigweed, herbicidal effect rating (redroot pigweed [3]): 0 (Herbicidal rate of 5% or less (almost no effect))
- herbicidal effect on J: blackgrass (blackgrass [4]; 320 g/ha): 0 (Herbicidal rate of 5% or less (almost no effect))
- P: chickweed, herbicidal effect rating (chickweed [5]): 3 (Herbicidal rate of 40% or more and less than 70%)
- herbicidal effect on L: windgrass (windgrass [6]; 320 g/ha): 0 (Herbicidal rate of 5% or less (almost no effect))
- J: blackgrass, herbicidal effect rating (blackgrass [7]): 0 (Herbicidal rate of 5% or less (almost no effect))
- herbicidal effect on N: redroot pigweed (redroot pigweed [8]; 320 g/ha): 0 (Herbicidal rate of 5% or less (almost no effect))
- herbicidal effect on K: Italian ryegrass (Italian ryegrass [9]; 320 g/ha): 0 (Herbicidal rate of 5% or less (almost no effect))
- L: windgrass, herbicidal effect rating (windgrass [10]): 0 (Herbicidal rate of 5% or less (almost no effect))
- F: southern crabgrass, herbicidal effect rating (southern crabgrass [11]): 0 (Herbicidal rate of 5% or less (almost no effect))
- H: barnyard grass, herbicidal effect rating (barnyard grass [12]): 0 (Herbicidal rate of 5% or less (almost no effect))
- G: green foxtail, herbicidal effect rating (green foxtail [13]): 0 (Herbicidal rate of 5% or less (almost no effect))
- herbicidal effect on F: southern crabgrass (southern crabgrass [14]; 320 g/ha): 0 (Herbicidal rate of 5% or less (almost no effect))
- Q: false cleavers, herbicidal effect rating (false cleavers [15]): 0 (Herbicidal rate of 5% or less (almost no effect))
- herbicidal effect on O: lambsquarters (lambsquarters [16]; 320 g/ha): 0 (Herbicidal rate of 5% or less (almost no effect))
- O: lambsquarters, herbicidal effect rating (lambsquarters [17]): 0 (Herbicidal rate of 5% or less (almost no effect))
- herbicidal effect on G: green foxtail (green foxtail [18]; 320 g/ha): 0 (Herbicidal rate of 5% or less (almost no effect))
- herbicidal effect on R: persian speedwell (persian speedwell [19]; 320 g/ha): 0 (Herbicidal rate of 5% or less (almost no effect))
- M: velvetleaf, herbicidal effect rating (velvetleaf [20]): 0 (Herbicidal rate of 5% or less (almost no effect))
- I: wild oat, herbicidal effect rating (wild oat [21]): 0 (Herbicidal rate of 5% or less (almost no effect))
- herbicidal effect on I: wild oat (wild oat [22]; 320 g/ha): 0 (Herbicidal rate of 5% or less (almost no effect))
- K: Italian ryegrass, herbicidal effect rating (Italian ryegrass [23]): 0 (Herbicidal rate of 5% or less (almost no effect))
- herbicidal effect on Q: false cleavers (false cleavers [24]): 2 (Herbicidal rate of 20% or more and less than 40%)
- herbicidal effect on H: barnyard grass (barnyard grass [25]; 320 g/ha): 0 (Herbicidal rate of 5% or less (almost no effect))

SMILES: CSCCSCc1ccc(-c2sc3ccc(F)cc3c2-c2c(O)c(C)nn(C)c2=O)cc1 [2-329]
- M: velvetleaf, herbicidal effect (criteria 0-5) (velvetleaf [1]; AAH 320 g/ha): 5 (Herbicidal rate of 90% or more (almost completely withered))
- Herbicidal effect on B: Japanese bulrush (grade 0-5) (Japanese bulrush): 0 (Herbicidal rate of 5% or less (almost no effect))
- P: chickweed, herbicidal effect (criteria 0-5) (chickweed [2]; AAH 320 g/ha): 5 (Herbicidal rate of 90% or more (almost completely withered))
- herbicidal effect on N: redroot pigweed (redroot pigweed [3]): 3 (Herbicidal rate of 40% or more and less than 70%)
- J: blackgrass, herbicidal effect (criteria 0-5) (blackgrass [4]; AAH 320 g/ha): 4 (Herbicidal rate of 70% or more and less than 90%)
- herbicidal effect on P: chickweed (chickweed [5]): 0 (Herbicidal rate of 5% or less (almost no effect))
- L: windgrass, herbicidal effect (criteria 0-5) (windgrass [6]; AAH 320 g/ha): 5 (Herbicidal rate of 90% or more (almost completely withered))
- herbicidal effect on J: blackgrass (blackgrass [7]): 0 (Herbicidal rate of 5% or less (almost no effect))
- herbicidal effect on D: Chinese sprangletop (Chinese sprangletop): 4 (Herbicidal rate of 70% or more and less than 90%)
- N: redroot pigweed, herbicidal effect (criteria 0-5) (redroot pigweed [8]; AAH 320 g/ha): 5 (Herbicidal rate of 90% or more (almost completely withered))
- K: Italian ryegrass, herbicidal effect (criteria 0-5) (Italian ryegrass [9]; AAH 320 g/ha): 4 (Herbicidal rate of 70% or more and less than 90%)
- herbicidal effect on R: persian speedwell (persian speedwell [26]): 0 (Herbicidal rate of 5% or less (almost no effect))
- herbicidal effect on L: windgrass (windgrass [10]): 0 (Herbicidal rate of 5% or less (almost no effect))
- herbicidal effect on F: southern crabgrass (southern crabgrass [11]): 0 (Herbicidal rate of 5% or less (almost no effect))
- herbicidal effect on H: barnyard grass (barnyard grass [12]): 0 (Herbicidal rate of 5% or less (almost no effect))
- herbicidal effect on G: green foxtail (green foxtail [13]): 0 (Herbicidal rate of 5% or less (almost no effect))
- F: southern crabgrass, herbicidal effect (criteria 0-5) (southern crabgrass [14]; AAH 320 g/ha): 5 (Herbicidal rate of 90% or more (almost completely withered))
- Herbicidal effect on C: oval-leafed pondweed (grade 0-5) (oval-leafed pondweed): 0 (Herbicidal rate of 5% or less (almost no effect))
- herbicidal effect on E: rice flat sedge (rice flat sedge): 4 (Herbicidal rate of 70% or more and less than 90%)
- herbicidal effect on Q: false cleavers (false cleavers [15]): 0 (Herbicidal rate of 5% or less (almost no effect))
- O: lambsquarters, herbicidal effect (criteria 0-5) (lambsquarters [16]; AAH 320 g/ha): 4 (Herbicidal rate of 70% or more and less than 90%)
- herbicidal effect on O: lambsquarters (lambsquarters [17]): 0 (Herbicidal rate of 5% or less (almost no effect))
- herbicidal effect on H: barnyard grass (barnyard grass [27]): 5 (Herbicidal rate of 90% or more (almost completely withered))
- G: green foxtail, herbicidal effect (criteria 0-5) (green foxtail [18]; AAH 320 g/ha): 5 (Herbicidal rate of 90% or more (almost completely withered))
- R: persian speedwell, herbicidal effect (criteria 0-5) (persian speedwell [19]; AAH 320 g/ha): 5 (Herbicidal rate of 90% or more (almost completely withered))
- herbicidal effect on M: velvetleaf (velvetleaf [20]): 0 (Herbicidal rate of 5% or less (almost no effect))
- herbicidal effect on I: wild oat (wild oat [21]): 0 (Herbicidal rate of 5% or less (almost no effect))
- Herbicidal effect on A: late watergrass (grade 0-5) (late watergrass): 2 (Herbicidal rate of 20% or more and less than 40%)
- I: wild oat, herbicidal effect (criteria 0-5) (wild oat [22]; AAH 320 g/ha): 3 (Herbicidal rate of 40% or more and less than 70%)
- herbicidal effect on K: Italian ryegrass (Italian ryegrass [23]): 0 (Herbicidal rate of 5% or less (almost no effect))
- H: barnyard grass, herbicidal effect (criteria 0-5) (barnyard grass [25]; AAH 320 g/ha): 4 (Herbicidal rate of 70% or more and less than 90%)
